Data taken from ChEMBL document CHEMBL3797052 (Eur J Med Chem, 2016).

tested on: not listed separately; assay: Antiproliferative activity against human RXF393 cells assessed as growth inhibition after 48 hrs by sulforhodamine B assay; format: functional; details: RXF 393, 48 h

Compound	GI50	TGI
CNC(=O)c1cc(Oc2ccc(NC(=O)Nc3ccc(Cl)c(C(F)(F)F)c3)cc2)ccn1 [SORAFENIB]	3.16 µM	10 µM

same assay, conditions: RXF 393, 48 h, read-out: LC50 (the source's name)

Compound	CC50
CNC(=O)c1cc(Oc2ccc(NC(=O)Nc3ccc(Cl)c(C(F)(F)F)c3)cc2)ccn1 [SORAFENIB]	39.8 µM

tested on: 786-0; assay: Antiproliferative activity against human 786-0 cells assessed as growth inhibition after 48 hrs by sulforhodamine B assay; format: functional; details: 786-0, 48 h

Compound	GI50	TGI
CNC(=O)c1cc(Oc2ccc(NC(=O)Nc3ccc(Cl)c(C(F)(F)F)c3)cc2)ccn1 [SORAFENIB]	3.16 µM	10 µM

tested on: SK-MEL-28; assay: Antiproliferative activity against human SK-MEL-28 cells assessed as growth inhibition after 48 hrs by sulforhodamine B assay; format: functional; details: SK-MEL-28, 48 h

Compound	GI50	TGI
CNC(=O)c1cc(Oc2ccc(NC(=O)Nc3ccc(Cl)c(C(F)(F)F)c3)cc2)ccn1 [SORAFENIB]	2510 nM	7.94 µM

same assay, conditions: SK-MEL-28, 48 h, read-out: LC50 (the source's name)

Compound	CC50
CNC(=O)c1cc(Oc2ccc(NC(=O)Nc3ccc(Cl)c(C(F)(F)F)c3)cc2)ccn1 [SORAFENIB]	31.6 µM

tested on: not listed separately; assay: Antiproliferative activity against human SF539 cells assessed as growth inhibition after 48 hrs by sulforhodamine B assay; format: functional; details: SF-539, 48 h

Compound	TGI
CNC(=O)c1cc(Oc2ccc(NC(=O)Nc3ccc(Cl)c(C(F)(F)F)c3)cc2)ccn1 [SORAFENIB]	10 µM

tested on: not listed separately; assay: Antiproliferative activity against human SF268 cells assessed as growth inhibition after 48 hrs by sulforhodamine B assay; format: functional; details: SF-268, 48 h

Compound	GI50	TGI
CNC(=O)c1cc(Oc2ccc(NC(=O)Nc3ccc(Cl)c(C(F)(F)F)c3)cc2)ccn1 [SORAFENIB]	2510 nM	10 µM

tested on: not listed separately; assay: Antiproliferative activity against human HOP62 cells assessed as growth inhibition after 48 hrs by sulforhodamine B assay; format: functional; details: HOP-62, 48 h

Compound	GI50	TGI
CNC(=O)c1cc(Oc2ccc(NC(=O)Nc3ccc(Cl)c(C(F)(F)F)c3)cc2)ccn1 [SORAFENIB]	2000 nM	7.94 µM

tested on: EKVX; assay: Antiproliferative activity against human EKVX cells assessed as growth inhibition after 48 hrs by sulforhodamine B assay; format: functional; details: not given

Compound	GI50	TGI
CNC(=O)c1cc(Oc2ccc(NC(=O)Nc3ccc(Cl)c(C(F)(F)F)c3)cc2)ccn1 [SORAFENIB]	2510 nM	7.94 µM

same assay, conditions: read-out: LC50 (the source's name)

Compound	CC50
CNC(=O)c1cc(Oc2ccc(NC(=O)Nc3ccc(Cl)c(C(F)(F)F)c3)cc2)ccn1 [SORAFENIB]	63.1 µM

tested on: not listed separately; assay: Antiproliferative activity against human RPMI8226 cells assessed as growth inhibition after 48 hrs by sulforhodamine B assay; format: functional; details: RPMI-8226, 48 h

Compound	TGI
CNC(=O)c1cc(Oc2ccc(NC(=O)Nc3ccc(Cl)c(C(F)(F)F)c3)cc2)ccn1 [SORAFENIB]	6.31 µM

tested on: MDA-MB-231; assay: Antiproliferative activity against human MDA-MB-231 cells assessed as growth inhibition after 48 hrs by sulforhodamine B assay; format: functional; details: MDA-MB-231, 48 h

Compound	GI50	TGI
CNC(=O)c1cc(Oc2ccc(NC(=O)Nc3ccc(Cl)c(C(F)(F)F)c3)cc2)ccn1 [SORAFENIB]	1260 nM	3.98 µM

same assay, conditions: MDA-MB-231, 48 h, read-out: LC50 (the source's name)

Compound	CC50
CNC(=O)c1cc(Oc2ccc(NC(=O)Nc3ccc(Cl)c(C(F)(F)F)c3)cc2)ccn1 [SORAFENIB]	20 µM

tested on: not listed separately; assay: Antiproliferative activity against human Hs 578T cells assessed as growth inhibition after 48 hrs by sulforhodamine B assay; format: functional; details: not given

Compound	TGI
CNC(=O)c1cc(Oc2ccc(NC(=O)Nc3ccc(Cl)c(C(F)(F)F)c3)cc2)ccn1 [SORAFENIB]	7.94 µM

same assay, conditions: read-out: LC50 (the source's name)

Compound	CC50
CNC(=O)c1cc(Oc2ccc(NC(=O)Nc3ccc(Cl)c(C(F)(F)F)c3)cc2)ccn1 [SORAFENIB]	100 µM
